Data reported in the NIST ThermoML archive (doi:10.1016/j.jct.2012.03.025).

Assay: mn = molality of the nth substance listed, in mol/kg
Settings: 101 kPa, Liquid; for speed of sound: Sing-around technique in a fixed-path interferometer; for mass density: Vibrating tube method

CC(=O)[O-].CCCCn1cc[n+](C)c1 [1-butyl-3-methylimidazolium acetate] + O
Settings	mass density, 288.15 K [kg/m3]	mass density, 293.15 K [kg/m3]	mass density, 298.15 K [kg/m3]	mass density, 303.15 K [kg/m3]	mass density, 308.15 K [kg/m3]	speed of sound, 288.15 K [m/s]	speed of sound, 293.15 K [m/s]	speed of sound, 298.15 K [m/s]	speed of sound, 303.15 K [m/s]	speed of sound, 308.15 K [m/s]
m1 = 0.0534	999.93	999	997.824	996.406	994.772	1476.3	1492	1505.6	1517.5	1527.3
m1 = 0.104	1000.71	999.755	998.548	997.105	995.451	1485.4	1500.6	1513.6	1525.2	1534.3
m1 = 0.1535	1001.45	1000.47	999.237	997.775	996.101	1494.2	1508.8	1521.3	1532.3	1541
m1 = 0.209	1002.31	1001.29	1000.03	998.535	996.836	1504	1517.9	1529.8	1540	1548.3
m1 = 0.2498	1002.95	1001.91	1000.62	999.11	997.391	1511	1524.4	1535.9	1545.7	1553.8
m1 = 0.2997	1003.66	1002.59	1001.27	999.737	997.998	1519.5	1532	1543	1552.5	1560.3
m1 = 0.35	1004.51	1003.4	1002.05	1000.49	998.725	1528.1	1540	1550	1559	1566.8
m1 = 0.4035	1005.33	1004.19	1002.81	1001.22	999.427	1536.9	1548	1557.6	1566	1573.3
m1 = 0.457	1006.2	1005.02	1003.61	1001.98	1000.17	1545.8	1556	1564.8	1572.9	1579.9
m1 = 0.5036	1006.93	1005.72	1004.28	1002.63	1000.79	1553.4	1562.8	1571	1578.5	1585.6

CCCCn1cc[n+](C)c1.O=S(=O)([O-])C(F)(F)F [1-butyl-3-methylimidazolium trifluoromethanesulfonate] + O
Settings	mass density, 288.15 K [kg/m3]	mass density, 293.15 K [kg/m3]	mass density, 298.15 K [kg/m3]	mass density, 303.15 K [kg/m3]	mass density, 308.15 K [kg/m3]	speed of sound, 288.15 K [m/s]	speed of sound, 293.15 K [m/s]	speed of sound, 298.15 K [m/s]	speed of sound, 303.15 K [m/s]	speed of sound, 308.15 K [m/s]
m1 = 0.051	1002.68	1001.73	1000.53	999.089	997.44	1472.8	1488	1501.7	1513.5	1523.6
m1 = 0.1023	1006.18	1005.17	1003.9	1002.43	1000.76	1478.5	1493.2	1506.2	1517.4	1527
m1 = 0.1499	1009.37	1008.3	1007	1005.49	1003.78	1483.8	1497.9	1510.2	1520.8	1529.8
m1 = 0.1996	1012.64	1011.5	1010.17	1008.6	1006.87	1489.1	1502.4	1514.2	1524.5	1533
m1 = 0.2496	1015.85	1014.68	1013.28	1011.7	1009.91	1494.2	1507	1518.1	1527.6	1535.6
m1 = 0.3019	1019.2	1017.92	1016.52	1014.86	1013.02	1499.2	1511.3	1521.8	1530.8	1538.2
m1 = 0.3489	1022.13	1020.78	1019.36	1017.64	1015.77	1503.5	1515	1525	1533.5	1540.5
m1 = 0.4034	1025.46	1024.1	1022.57	1020.8	1018.88	1508.2	1519	1528.4	1536.3	1542.8
m1 = 0.4532	1028.45	1027.06	1025.5	1023.65	1021.69	1512.3	1522.7	1531.5	1538.9	1544.9
m1 = 0.5045	1031.5	1030.04	1028.46	1026.57	1024.5	1517	1526.9	1534.1	1541	1546.6

CCCCn1cc[n+](C)c1.[Cl-] [1-butyl-3-methylimidazolium chloride] + O
Settings	mass density, 288.15 K [kg/m3]	mass density, 293.15 K [kg/m3]	mass density, 298.15 K [kg/m3]	mass density, 303.15 K [kg/m3]	mass density, 308.15 K [kg/m3]	speed of sound, 288.15 K [m/s]	speed of sound, 293.15 K [m/s]	speed of sound, 298.15 K [m/s]	speed of sound, 303.15 K [m/s]	speed of sound, 308.15 K [m/s]
m1 = 0.0519	999.802	998.874	997.684	996.264	994.611	1474.6	1489.9	1503.6	1515.5	1525.8
m1 = 0.1011	1000.45	999.477	998.265	996.836	995.146	1482	1496.7	1509.9	1521.4	1531.3
m1 = 0.1548	1001.14	1000.16	998.918	997.452	995.754	1489.8	1504	1516.6	1527.7	1537.2
m1 = 0.2011	1001.77	1000.76	999.494	998.007	996.292	1496.5	1510.1	1522.3	1533	1542.3
m1 = 0.2583	1002.56	1001.52	1000.2	998.699	996.957	1504.3	1517.8	1529.2	1539.7	1548.4
m1 = 0.311	1003.25	1002.18	1000.86	999.317	997.577	1511.4	1524.5	1535.6	1545.6	1553.9
m1 = 0.3619	1003.98	1002.88	1001.53	999.989	998.169	1518.1	1531	1541.4	1551.3	1559.3
m1 = 0.4064	1004.59	1003.46	1002.09	1000.54	998.737	1524	1536.4	1546.8	1556.2	1563.9
m1 = 0.451	1005.23	1004.07	1002.67	1001.08	999.294	1530	1542.1	1551.6	1561	1568.4
m1 = 0.5069	1005.99	1004.8	1003.4	1001.79	999.991	1536.9	1549	1557.9	1567.1	1574

CCCCn1cc[n+](C)c1.F[B-](F)(F)F [1-butyl-3-methylimidazolium tetrafluoroborate] + O
Settings	mass density, 288.15 K [kg/m3]	mass density, 293.15 K [kg/m3]	mass density, 298.15 K [kg/m3]	mass density, 303.15 K [kg/m3]	mass density, 308.15 K [kg/m3]	speed of sound, 288.15 K [m/s]	speed of sound, 293.15 K [m/s]	speed of sound, 298.15 K [m/s]	speed of sound, 303.15 K [m/s]	speed of sound, 308.15 K [m/s]
m1 = 0.0514	1001.13	1000.19	998.93	997.535	995.822	1471.9	1487.3	1500.9	1512.8	1523
m1 = 0.1056	1003.19	1002.21	1000.85	999.439	997.645	1476.9	1492	1505	1516.2	1526
m1 = 0.1559	1005.1	1004.06	1002.6	1001.17	999.334	1481.5	1495.9	1508.5	1519.5	1528.8
m1 = 0.201	1006.76	1005.67	1004.18	1002.7	1000.82	1485.3	1499.3	1511.3	1522.1	1531.1
m1 = 0.2573	1008.83	1007.69	1006.13	1004.58	1002.65	1490	1503.4	1515	1525.2	1533.7
m1 = 0.3001	1010.36	1009.21	1007.59	1005.98	1004.05	1493.2	1506.2	1517.5	1527.3	1535.6
m1 = 0.3504	1012.17	1010.97	1009.26	1007.63	1005.66	1496.9	1509.5	1520.4	1529.8	1537.7
m1 = 0.4093	1014.26	1012.98	1011.22	1009.47	1007.54	1501.1	1513.2	1523.6	1532.6	1540.1
m1 = 0.4506	1015.7	1014.4	1012.58	1010.78	1008.78	1504	1515.6	1525.8	1534.5	1541.7
m1 = 0.508	1017.7	1016.36	1014.5	1012.56	1010.59	1507.4	1519	1528.5	1536.8	1543.7
